# How the values were obtained:
# HER-2 = biological target: T1, HER-2 (Homo sapiens, UniProt P04626); test: HER-2 Kinase Assay; type: biochemical; details: value in parentheses
# T1 construct: His6 with thrombin site (N); purchased Proqinase (Freiburg, Germany)
# Experimental: The HER-2 kinase used was purified at Proqinase (Freiburg, Germany) from a construct that consisted of a fusion of GST (Glutathione-S-Transferase), HIS6-Thrombin and the nucleotides encoding amino acids 679 to 1255 of HER-2 (Accession Number M11730).
# A mixture of a 10× kinase reaction buffer (600 mM Hepes at pH 7.5, 30 mM Magnesium Chloride, 0.03 mM Sodium Vanadate and 500 μg/mL PEG 20,000), DTT (1.2 mM final from a 10 mM stock), APT (1 μM from a 10 mM stock), biotinylated polyGluTyr (1.5 ng/μL final from stock of 1 μg/μL) prepared by Upstate Biotechnologies, Lake Placid, N.Y.), Manganese Chloride (3 mM final from a 1 M stock), γ-^33P-ATP (10 μCl/μL stock) and water (70 μL/well) was added to each well of a Streptavidin Flashplate (Cat. # SMP103, NEN, Boston, Mass.).
# Test compound stock (1 μL) was added to the appropriate wells. Diluted GSTHER2 kinase (6.7 ng/μL diluted into 50 mM Tris-HCl at pH 8.0 and 0.1% bovine serum albumin) (30 μL) was added (total volume of 200 ng/well) to initiate the reactions.
# The reaction plates were incubated at 30° C. for 1 hr. The reaction was terminated by aspirating the reaction mixture from the plate wells and washing the wells three times with a 1×PBS stop buffer (300 μL) and 100 mM EDTA. After the final wash, the same stop buffer (200 μL) was again added to the wells. The plates were then sealed and read on the TopCount scintillation counter.
# The Her-2 inhibition values were derived according to the procedure described in Example 164 and are shown as percent in Table 4 at a test concentration of 1 μM. For those compounds with an IC50, the IC50 value in μM is shown in parentheses. For compounds with multiple test values, each value represents a separate assay result.
# EGFR = biological target: T2, EGFR (Homo sapiens, UniProt P00533); test: EGFR Kinase Assay; type: biochemical; details: for IC50: GST-EGFR, ATP 5 μM
# T2 construct: The intracellular portion of EGFR started at nucleotide 2189 (corresponding to amino acid 667) and ended at the termination codon; made in house; host or cells: Sf9 insect cells (baculovirus)
# T2 sequence (P00533 669-1210 limits assumed): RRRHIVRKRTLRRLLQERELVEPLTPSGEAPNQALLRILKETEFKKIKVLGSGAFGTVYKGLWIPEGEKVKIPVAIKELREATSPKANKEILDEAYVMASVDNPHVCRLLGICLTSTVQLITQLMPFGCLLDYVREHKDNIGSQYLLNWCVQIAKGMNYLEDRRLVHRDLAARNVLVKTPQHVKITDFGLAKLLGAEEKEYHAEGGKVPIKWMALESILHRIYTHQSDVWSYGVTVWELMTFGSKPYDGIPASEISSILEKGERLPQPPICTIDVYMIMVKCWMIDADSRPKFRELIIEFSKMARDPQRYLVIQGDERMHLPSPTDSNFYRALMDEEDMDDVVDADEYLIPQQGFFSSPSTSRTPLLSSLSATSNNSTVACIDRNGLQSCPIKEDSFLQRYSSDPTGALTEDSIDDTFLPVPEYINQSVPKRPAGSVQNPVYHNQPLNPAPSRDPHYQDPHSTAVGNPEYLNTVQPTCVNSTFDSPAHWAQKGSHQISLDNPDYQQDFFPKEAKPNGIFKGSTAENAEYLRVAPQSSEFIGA
# Text: The EGFR kinase used was a fusion of Glutathione-S-Transferase (GST) and a PCR amplified intracellular portion of EGFR (Accession Number NM_005228). The intracellular portion of EGFR started at nucleotide 2189 (corresponding to amino acid 667) and ended at the termination codon. The portion was PCR amplified with primers that added the lambda attB sequences to each end, recombined into an entry vector, then into a GST destination vector (as described in Gateway Technologies Manual by Invitrogen Corporation, Carlsbad, Calif.).
# The destination vector was recombined in the DH10BAC strain of bacteria to produce a bacmid. The bacmid was transfected into Sf 9 cells and the supernatant containing the baculovirus was collected. The GSTEGFR protein was purified using large cultures of Sf 9 cells infected with stock virus. After an appropriate period of time, the cells were collected and lysed. The GSTEGFR was then purified from the lysate on Glutathione-Sepharose columns (as described by Amersham Biosciences, Buckinghamshire, United Kingdom).
# The EGFR substrate was prepared by biotinylating polyGluTyr (128 mg) (Sigma, St. Louis, Mo.) in a 1×PBS buffer incubated together with a 12-fold molar excess of Sulfo-NHS-LC-Biotin on ice for at least 2 hrs. The free biotin was separated from the biotinylated polyGluTyr on a gel filtration column.
# A mixture of a 10× kinase buffer (500 mM Tris at pH 8.0, 100 mM Magnesium Chloride and 1 mM Sodium Vanadate), DTT (1 mM final from 500 mM stock), ATP (5 μM final from 10 mM stock), biotinylated polyGluTyr (10 μg/μL stock), γ-^33P ATP (10 μCl/μL stock) and water was added to each well (for a total of 90 μL/well) of a Streptavidin Flashplate (Perkin Elmer, Wellesley, Mass.).
# Test compound in 100% DMSO (2 μL) was added to the appropriate wells. Diluted GSTEGFR (1:300 dilution in 50 mM Tris at pH 8.0 and 0.1% bovine serum albumin) (10 μL) was added to the wells to initiate the reactions.
# The plates were incubated at 30° C. for 1 hr with shaking. The reacted contents were removed and the plates were sequentially washed three times with a 1×PBS stop buffer (300 μL without Magnesium and Calcium) and 100 mM EDTA. After the final wash, the same stop buffer (200 μL) was added to the wells. The plates were then sealed and read on the TopCount scintillation counter.
# Test compounds were assayed in triplicate at 16 concentrations at half-log dilutions starting at 200 uM. A maximum and minimum signal for the assay was determined on each plate. The percent inhibition of a test compound was calculated according to the formula: […]
# For a series of test concentrations, the IC50 was derived by graphing percent inhibition against the log of the concentrations tested for a given compound. For those compounds without an IC50, the inhibition values in percent are shown at a test concentration of 2 μM. For compounds with multiple values, each value represents a separate assay result.
# T1 sequence (P04626 679-1255): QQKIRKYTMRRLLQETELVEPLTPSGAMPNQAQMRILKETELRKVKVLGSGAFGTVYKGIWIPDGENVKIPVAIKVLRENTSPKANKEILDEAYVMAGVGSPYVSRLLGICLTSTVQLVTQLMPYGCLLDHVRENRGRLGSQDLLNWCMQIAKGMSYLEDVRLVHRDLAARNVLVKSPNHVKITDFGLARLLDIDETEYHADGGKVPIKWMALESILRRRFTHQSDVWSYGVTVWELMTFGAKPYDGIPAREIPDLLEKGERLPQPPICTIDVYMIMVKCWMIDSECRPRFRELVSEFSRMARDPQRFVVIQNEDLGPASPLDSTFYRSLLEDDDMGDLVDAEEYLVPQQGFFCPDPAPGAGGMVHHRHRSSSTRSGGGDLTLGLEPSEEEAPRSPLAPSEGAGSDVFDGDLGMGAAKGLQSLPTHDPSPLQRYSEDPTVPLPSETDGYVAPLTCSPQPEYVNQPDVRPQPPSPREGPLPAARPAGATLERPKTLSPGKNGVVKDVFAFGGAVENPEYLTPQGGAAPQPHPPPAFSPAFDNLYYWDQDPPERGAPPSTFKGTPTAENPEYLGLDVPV
SMILES,IC50 (HER-2) [nM],IC50 (EGFR) [nM],"inhibition at 2 µM (EGFR; test concentration of 2 μM, compounds without an IC50, read-out: EGFR inhibition in percent) [%]"
"O=C(Nc1ccc(CN2CCCCC2)cc1)c1sc2ncnc3c2c1NC(=O)N3c1ccc(Oc2cccc(F)c2)c(Cl)c1 [Cpd 160, 5-[3-chloro-4-(3-fluoro-phenoxy)-phenyl]-4-oxo-4,5-dihydro-3H-1-thia-3,5,6,8-tetraaza-acenaphthylene-2-carboxylic acid (4-piperidin-1-ylmethyl-phenyl)-amide]",155,23,–
"COc1cc(NC(=O)c2sc3ncnc4c3c2NC(=O)N4c2ccc(Oc3cccc(F)c3)c(Cl)c2)ccc1OCCN1CCCCC1 [Cpd 161, 5-[3-chloro-4-(3-fluoro-phenoxy)-phenyl]-4-oxo-4,5-dihydro-3H-1-thia-3,5,6,8-tetraaza-acenaphthylene-2-carboxylic acid [3-methoxy-4-(2-piperidin-1-yl-ethoxy)-phenyl]-amide]",699,23,–
"O=C(Nc1ccc(CN2CCOCC2)cc1)c1sc2ncnc3c2c1NC(=O)N3c1ccc(Oc2cccc(F)c2)c(Cl)c1 [Cpd 162, 5-[3-chloro-4-(3-fluoro-phenoxy)-phenyl]-4-oxo-4,5-dihydro-3H-1-thia-3,5,6,8-tetraaza-acenaphthylene-2-carboxylic acid (4-morpholin-4-ylmethyl-phenyl)-amide]",82,26,–
"O=C(Nc1ccc(C(O)CN2CCOCC2)cc1)c1sc2ncnc3c2c1NC(=O)N3c1ccc(Oc2ccccc2)cc1 (centres unmarked) [Cpd 174, 4-oxo-5-(4-phenoxy-phenyl)-4,5-dihydro-3H-1-thia-3,5,6,8-tetraaza-acenaphthylene-2-carboxylic acid [4-(1-hydroxy-2-morpholin-4-yl-ethyl)-phenyl]-amide]",818,18,–
"CN1CCC(NC(=O)c2sc3ncnc4c3c2NC(=O)N4c2ccc3c(cnn3Cc3cccc(F)c3)c2)CC1 [Cpd 177, 5-[1-(3-fluoro-benzyl)-1H-indazol-5-yl]-4-oxo-4,5-dihydro-3H-1-thia-3,5,6,8-tetraaza-acenaphthylene-2-carboxylic acid (1-methyl-piperidin-4-yl)-amide]",1500,75,–
"CCOC(=O)c1sc2ncnc3c2c1NC(=O)N3C(C)c1ccc(Br)cc1 (centres unmarked) [Cpd 179, 5-[1-(4-bromo-phenyl)-ethyl]-4-oxo-4,5-dihydro-3H-1-thia-3,5,6,8-tetraaza-acenaphthylene-2-carboxylic acid ethyl ester]",> 100000,–,0.7
"O=C(Nc1ccc(CN2CCOCC2)cc1)c1sc2ncnc3c2c1NC(=O)N3c1ccc(OCc2ccccn2)c(Br)c1 [Cpd 180, 5-[3-bromo-4-(pyridin-2-ylmethoxy)-phenyl]-4-oxo-4,5-dihydro-3H-1-thia-3,5,6,8-tetraaza-acenaphthylene-2-carboxylic acid (4-morpholin-4-ylmethyl-phenyl)-amide]",112,95,–
"COc1ccc(N2C(=O)Nc3c(C(=O)Nc4ccc(CN5CCOCC5)cc4)sc4ncnc2c34)cc1Br [Cpd 181, 5-(3-bromo-4-methoxy-phenyl)-4-oxo-4,5-dihydro-3H-1-thia-3,5,6,8-tetraaza-acenaphthylene-2-carboxylic acid (4-morpholin-4-ylmethyl-phenyl)-amide]",2190,887,–
"COc1ccc(N2C(=O)Nc3c(C(=O)Nc4ccc(CN5CCCCC5)cc4)sc4ncnc2c34)cc1Br [Cpd 182, 5-(3-bromo-4-methoxy-phenyl)-4-oxo-4,5-dihydro-3H-1-thia-3,5,6,8-tetraaza-acenaphthylene-2-carboxylic acid (4-piperidin-1-ylmethyl-phenyl)-amide]",1680,880,–
"COc1ccc(N2C(=O)Nc3c(C(=O)Nc4ccc(CN5CCOCC5)c(OC)c4)sc4ncnc2c34)cc1Br [Cpd 183, 5-(3-bromo-4-methoxy-phenyl)-4-oxo-4,5-dihydro-3H-1-thia-3,5,6,8-tetraaza-acenaphthylene-2-carboxylic acid (3-methoxy-4-morpholin-4-ylmethyl-phenyl)-amide]",980,420,–
"COc1cc(NC(=O)c2sc3ncnc4c3c2NC(=O)N4c2cccc(Br)c2)ccc1CN1CCOCC1 [Cpd 184, 5-(3-bromo-phenyl)-4-oxo-4,5-dihydro-3H-1-thia-3,5,6,8-tetraaza-acenaphthylene-2-carboxylic acid (3-methoxy-4-morpholin-4-ylmethyl-phenyl)-amide]",79,17,–
"O=C(Nc1ccc(CN2CCOCC2)cc1)c1sc2ncnc3c2c1NC(=O)N3c1ccc(Oc2ccccc2)c(Br)c1 [Cpd 187, 5-(3-bromo-4-phenoxy-phenyl)-4-oxo-4,5-dihydro-3H-1-thia-3,5,6,8-tetraaza-acenaphthylene-2-carboxylic acid (4-morpholin-4-ylmethyl-phenyl)-amide]",248,121,–
"O=C(Nc1ccc(CN2CCCCC2)cc1)c1sc2ncnc3c2c1NC(=O)N3c1ccc(Oc2ccccc2)c(Br)c1 [Cpd 188, 5-(3-bromo-4-phenoxy-phenyl)-4-oxo-4,5-dihydro-3H-1-thia-3,5,6,8-tetraaza-acenaphthylene-2-carboxylic acid (4-piperidin-1-ylmethyl-phenyl)-amide]",83,49,–
"COc1cc(NC(=O)c2sc3ncnc4c3c2NC(=O)N4c2ccc(Oc3ccccc3)c(Br)c2)ccc1CN1CCOCC1 [Cpd 189, 5-(3-bromo-4-phenoxy-phenyl)-4-oxo-4,5-dihydro-3H-1-thia-3,5,6,8-tetraaza-acenaphthylene-2-carboxylic acid (3-methoxy-4-morpholin-4-ylmethyl-phenyl)-amide]",72,83,–
"CN1CCC(NC(=O)c2sc3ncnc4c3c2NC(=O)N4c2ccc(Sc3ccccc3)cc2)CC1 [Cpd 191, 4-oxo-5-(4-phenylsulfanyl-phenyl)-4,5-dihydro-3H-1-thia-3,5,6,8-tetraaza-acenaphthylene-2-carboxylic acid (1-methyl-piperidin-4-yl)-amide]",62,18,–
"O=C(Nc1ccc(CN2CCCCC2)cc1)c1sc2ncnc3c2c1NC(=O)N3c1ccc2nc(Cc3cccc(F)c3)[nH]c2c1 [Cpd 192, 5-[2-(3-fluoro-benzyl)-3H-benzoimidazol-5-yl]-4-oxo-4,5-dihydro-3H-1-thia-3,5,6,8-tetraaza-acenaphthylene-2-carboxylic acid (4-piperidin-1-ylmethyl-phenyl)-amide]",> 1000,410,–

# Reference: US7579356B2, “Thia-tetraazaacenaphthylene kinase inhibitors” (Janssen Pharmaceutica NV, priority 2005, dated 2009)
